In series [1] the test system is HeLa. Put plainly: Cellular uptake in human HeLa cells expressing CD4 at 100 uM after 24 hrs by confocal laser scanning microscopy analysis in presence of methanol. In kind it is ADME, cell-based.
For series [2], the system named is HeLa. Put plainly: Cellular uptake in human HeLa cells expressing CD4 at 100 uM after 24 hrs by confocal laser scanning microscopy analysis. In kind it is ADME, cell-based.
Series [3] relates to Human immunodeficiency virus 1. Kind of series: Antiviral activity against LacZ-containing HIV1 in COS7 cells expressing HXB2 Env, R8.91, and pTY-EFnLacZ assessed as reduction of viral vector infection into human HeLa cells expressing CD4 after 2 days using 5-bromo-4-chloro-3-indolyl-beta-D-galactopyranoside staining. In kind it is functional, organism-based. As to conditions: Human immunodeficiency virus 1, HeLa, 48 h.

Series [4] deals with Human immunodeficiency virus 1. Put plainly: Antiviral activity against HIV1 in COS7 cells expressing HXB2 Env, R8.91, and pTY-EFnLacZ assessed as reduction of viral vector infection into human HeLa cells expressing CD4 at 100 uM after 2 days using 5-bromo-4-chloro-3-indolyl-beta-D-galactopyranoside staining. In kind it is functional, organism-based.
Series [5] has as its system Human immunodeficiency virus 1. Put plainly: Antiviral activity against HIV1 infected in MAGIC5 cells co-cultured with Cos7 cells assessed as inhibition of viral envelope mediated cell-cell fusion at 100 uM after 24 hrs by beta galactosidase assay. Conditions: COS-7. In kind it is functional, organism-based.
For series [6], the system named is HeLa. Put plainly: Cytotoxicity against human HeLa cells expressing CD4 after 24 hrs by WST-1 assay. In kind it is cell-based. A general note: Tetrazolium assays rely on reduction of a dye to a coloured formazan, in cell work by metabolically active cells.
Series [7] has as its system HeLa. Put plainly: Cytotoxicity against human HeLa cells by MTT assay. In kind it is cell-based.

Molecules are shown by their SMILES. Calls of active or inactive are those of the source. No cut-off for these calls is given here. Bounds are passed on as bounds.

The results in this text go back to ChEMBL document CHEMBL1926605, “Synthesis, structure-activity relationships, and mechanism of action of anti-HIV-1 lamellarin α 20-sulfate analogues” (Bioorg Med Chem, 2011).

Turning to `COc1ccc(-c2c3c4cc(OC)c(O)cc4oc(=O)c3n3ccc4cc(OC)c(OC)cc4c23)cc1O`, the Drug uptake entry in series [1] and in series [2] was “Active” each time. In addition, in series [3], the IC50 (commonly the midpoint of a concentration-inhibition curve) was > 100 µM.

`COc1ccc(-c2c3c4cc(OC)c(OS(=O)(=O)[O-])cc4oc(=O)c3n3ccc4cc(OS(=O)(=O)[O-])c(OC)cc4c23)cc1OS(=O)(=O)[O-].[Na+].[Na+].[Na+]`: the outcome in series [4] was Active. Moreover, the inhibition result in series [5] was “Active”. Besides, the IC50 is > 100 µM in series [6] and 20.7 µM in series [3]. Also, the Drug uptake entry in series [1] is reported as “Active”; in series [2], “Not Active”.

`COc1cc2ccn3c(c(-c4ccc(OC)c(OS(=O)(=O)[O-])c4)c4c5cc(OC)c(OS(=O)(=O)[O-])cc5oc(=O)c43)c2cc1OC.[Na+].[Na+]`: the outcome in series [4] was Active. Further, the inhibition entry in series [5] was “Active”. The IC50 in series [6] was > 100 µM; in series [3], 15.1 µM. The Drug uptake result is on record as “Active” in series [1] and “Not Active” in series [2].

As to `COc1ccc(-c2c3c4cc(OC)c(OS(=O)(=O)[O-])cc4oc(=O)c3n3ccc4cc(OC)c(OC)cc4c23)cc1O.[Na+]`, the outcome in series [4] was Active. Also, the inhibition entry in series [5] was “Active”. Besides, in series [7], the Activity worked out at 274 µM. Moreover, the IC50 in series [6] is > 100 µM; in series [3], 13 µM. Also, the Drug uptake entry in series [1] was “Active”; in series [2], “Not Active”.

For the compound `COc1cc2c(cc1O)oc(=O)c1c2c(-c2ccc(OC)c(OS(=O)(=O)[O-])c2)c2c3cc(OC)c(OC)cc3ccn21.[Na+]`, in series [4], the result was Active. The inhibition result in series [5] is “Active”. The 50% inhibitory concentration (IC50) in series [6] was > 100 µM; in series [3], 14.4 µM. Also, the figures for the Drug uptake entry in series [1] and in series [2] were “Active” and “Not Active”, respectively.

Turning to `COc1ccc(-c2c3n(c4c(=O)oc5cc(OS(=O)(=O)[O-])c(OC)cc5c24)CCc2cc(OC)c(OC)cc2-3)cc1O.[Na+]`, the outcome in series [4] was Active. The inhibition entry in series [5] is “Active”. Also, the IC50 was > 100 µM in series [6] and 15.3 µM in series [3]. Besides, the values for the Drug uptake entry in series [1] and in series [2] were “Active” and “Not Active”, respectively.

`COc1ccc(-c2cn(CCc3ccc(OC)c(OC)c3)c3c(=O)oc4cc(OS(=O)(=O)O)c(OC)cc4c23)cc1O`: the inhibition result in series [5] is “inactive”. Further, the IC50 in series [3] was > 100 µM.
